From ChEMBL document CHEMBL3885881, “DrugMatrix”

Organism: Rattus norvegicus
Type: toxicity, organism-based, Sprague-Dawley
Details: in vivo, po, route oral GAVAGE, […]; for ABSOLUTE EOSINOPHIL / ABSOLUTE LYMPHOCYTE / ABSOLUTE MONOCYTE / ABSOLUTE SEGMENTED NEUTROPHIL / BASOPHIL / EOSINOPHIL / ERYTHROCYTE COUNT / HEMATOCRIT / HEMOGLOBIN / LEUKOCYTE COUNT / LYMPHOCYTE / MEAN CORPUSCULAR HEMOGLOBIN / MEAN CORPUSCULAR HEMOGLOBIN CONCENTRATION / MEAN CORPUSCULAR VOLUME / MONOCYTE / NEUTROPHIL / NUCLEATED RED BLOOD CELLS / PLATELET COUNT: tissue Blood; for ALANINE AMINOTRANSFERASE / ALBUMIN / ALKALINE PHOSPHATASE / ASPARTATE AMINOTRANSFERASE / BLOOD UREA NITROGEN / CARBON DIOXIDE / CHLORIDE / CHOLESTEROL / CREATINE PHOSPHOKINASE / CREATININE / GLUCOSE / LACTATE DEHYDROGENASE / LIPASE / PHOSPHORUS / POTASSIUM / SODIUM / TOTAL BILIRUBIN / TOTAL PROTEIN / URIC ACID: tissue Plasma
[1] = 400 mg/kg, 24 h, dose level Low, time 1 day
[2] = 1175 mg/kg, 6 h, dose level High, time 0.25 day
[3] = 1175 mg/kg, 24 h, dose level High, time 1 day

Description: DrugMatrix - Regimen: Single

ClC(Cl)(Cl)Cl [CARBON TETRACHLORIDE]
ABSOLUTE EOSINOPHIL [1]: 0 CELLS/uL | ABSOLUTE LYMPHOCYTE [1]: 6780.67 CELLS/uL | ABSOLUTE MONOCYTE [1]: 96.83 CELLS/uL | ABSOLUTE SEGMENTED NEUTROPHIL [1]: 789.17 CELLS/uL | BASOPHIL [1]: 0% | EOSINOPHIL [1]: 0% | ERYTHROCYTE COUNT [1]: 5.7 x10E6/uL | HEMATOCRIT [1]: 35.63% | HEMOGLOBIN [1]: 14.05 G/DL | LEUKOCYTE COUNT [1]: 7.67 x10E3/uL | LYMPHOCYTE [1]: 88% | MEAN CORPUSCULAR HEMOGLOBIN [1]: 24.7 pg | MEAN CORPUSCULAR HEMOGLOBIN CONCENTRATION [1]: 39.43 G/DL | MEAN CORPUSCULAR VOLUME [1]: 62.67 fL | MONOCYTE [1]: 1.17% | NEUTROPHIL [1]: 10.83% | NUCLEATED RED BLOOD CELLS [1]: 0 /100WBC | PLATELET COUNT [1]: 966 x10E3/uL | ALANINE AMINOTRANSFERASE [1]: 129.17 u/L | ALBUMIN [1]: 4.17 G/DL | ALKALINE PHOSPHATASE [1]: 338.17 u/L | ASPARTATE AMINOTRANSFERASE [1]: 420.5 u/L | BLOOD UREA NITROGEN [1]: 16.33 mg/dL | CARBON DIOXIDE [1]: 34.33 mmol/L | CHLORIDE [1]: 98.5 MEQ/L | CHOLESTEROL [1]: 58 mg/dL | CREATINE PHOSPHOKINASE [1]: 252 u/L | CREATININE [1]: 0.29 mg/dL | GLUCOSE [1]: 127.33 mg/dL | LACTATE DEHYDROGENASE [1]: 240.17 u/L | LIPASE [1]: 9.83 u/L | PHOSPHORUS [1]: 9.37 mg/dL | POTASSIUM [1]: 5.7 MEQ/L | SODIUM [1]: 144.08 MEQ/L | TOTAL BILIRUBIN [1]: 0.22 mg/dL | TOTAL PROTEIN [1]: 6.3 G/DL | URIC ACID [1]: 0.53 mg/dL | ABSOLUTE EOSINOPHIL [2]: 83.17 CELLS/uL | ABSOLUTE LYMPHOCYTE [2]: 9204 CELLS/uL | ABSOLUTE MONOCYTE [2]: 323.67 CELLS/uL | ABSOLUTE SEGMENTED NEUTROPHIL [2]: 4922.5 CELLS/uL | BASOPHIL [2]: 0% | EOSINOPHIL [2]: 0.5% | ERYTHROCYTE COUNT [2]: 5.84 x10E6/uL | HEMATOCRIT [2]: 39.2% | HEMOGLOBIN [2]: 14.45 G/DL | LEUKOCYTE COUNT [2]: 14.53 x10E3/uL | LYMPHOCYTE [2]: 63.5% | MEAN CORPUSCULAR HEMOGLOBIN [2]: 24.75 pg | MEAN CORPUSCULAR HEMOGLOBIN CONCENTRATION [2]: 36.87 G/DL | MEAN CORPUSCULAR VOLUME [2]: 67.08 fL | MONOCYTE [2]: 2% | NEUTROPHIL [2]: 34% | NUCLEATED RED BLOOD CELLS [2]: 0.17 /100WBC | PLATELET COUNT [2]: 1289.67 x10E3/uL | ALANINE AMINOTRANSFERASE [2]: 157 u/L | ALBUMIN [2]: 4.5 G/DL | ALKALINE PHOSPHATASE [2]: 379.83 u/L | ASPARTATE AMINOTRANSFERASE [2]: 369 u/L | BLOOD UREA NITROGEN [2]: 14.83 mg/dL | CARBON DIOXIDE [2]: 21 mmol/L | CHLORIDE [2]: 97.83 MEQ/L | CHOLESTEROL [2]: 59.17 mg/dL | CREATINE PHOSPHOKINASE [2]: 433.5 u/L | CREATININE [2]: 0.14 mg/dL | GLUCOSE [2]: 128.33 mg/dL | LACTATE DEHYDROGENASE [2]: 1251.5 u/L | LIPASE [2]: 9.83 u/L | PHOSPHORUS [2]: 13.47 mg/dL | POTASSIUM [2]: 5.85 MEQ/L | SODIUM [2]: 140.9 MEQ/L | TOTAL BILIRUBIN [2]: 0.32 mg/dL | TOTAL PROTEIN [2]: 5.88 G/DL | URIC ACID [2]: 2.1 mg/dL | ABSOLUTE EOSINOPHIL [3]: 28.67 CELLS/uL | ABSOLUTE LYMPHOCYTE [3]: 8687.33 CELLS/uL | ABSOLUTE MONOCYTE [3]: 78.33 CELLS/uL | ABSOLUTE SEGMENTED NEUTROPHIL [3]: 1872.33 CELLS/uL | BASOPHIL [3]: 0% | EOSINOPHIL [3]: 0.33% | ERYTHROCYTE COUNT [3]: 5.91 x10E6/uL | HEMATOCRIT [3]: 37.1% | HEMOGLOBIN [3]: 14.7 G/DL | LEUKOCYTE COUNT [3]: 10.67 x10E3/uL | LYMPHOCYTE [3]: 81% | MEAN CORPUSCULAR HEMOGLOBIN [3]: 24.93 pg | MEAN CORPUSCULAR HEMOGLOBIN CONCENTRATION [3]: 39.62 G/DL | MEAN CORPUSCULAR VOLUME [3]: 62.85 fL | MONOCYTE [3]: 0.83% | NEUTROPHIL [3]: 17.83% | NUCLEATED RED BLOOD CELLS [3]: 0 /100WBC | PLATELET COUNT [3]: 912.17 x10E3/uL | ALANINE AMINOTRANSFERASE [3]: 544.67 u/L | ALBUMIN [3]: 4.05 G/DL | ALKALINE PHOSPHATASE [3]: 371.33 u/L | ASPARTATE AMINOTRANSFERASE [3]: 3091.33 u/L | BLOOD UREA NITROGEN [3]: 15.5 mg/dL | CARBON DIOXIDE [3]: 33.83 mmol/L | CHLORIDE [3]: 98.33 MEQ/L | CHOLESTEROL [3]: 55 mg/dL | CREATINE PHOSPHOKINASE [3]: 312.83 u/L | CREATININE [3]: 0.32 mg/dL | GLUCOSE [3]: 129.83 mg/dL | LACTATE DEHYDROGENASE [3]: 4392.83 u/L | LIPASE [3]: 10 u/L | PHOSPHORUS [3]: 9.72 mg/dL | POTASSIUM [3]: 5.12 MEQ/L | SODIUM [3]: 144.23 MEQ/L | TOTAL BILIRUBIN [3]: 0.27 mg/dL | TOTAL PROTEIN [3]: 6.05 G/DL | URIC ACID [3]: 0.52 mg/dL
